Laboratory results taken from publication PMC9699089 (Pathogens, 2022).
pIC50, pKd: −log10 of the molar value. Like-named read-outs stand apart in the source and are kept apart here.

Columns and labels:
[1] = system: L. donovani (MHOM/IN/00/DEVI) promastigotes; experiment: In vitro antileishmanial activity on promastigotes, MTT assay; format: cell-based; settings: Leishmania donovani, 72 h incubation, mean +/- SD of three independent experiments
Method in brief: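 Log-phase L. donovani MHOM/IN/00/DEVI promastigotes at 10^6 parasites/mL in Schneider's medium with 20% FCS were exposed to compounds for 72 h at 27 °C, final DMSO under 0.5%. Viability was read by MTT reduction over 4 h, absorbance 570 nm (630 nm reference). IC50 came from regression, three independent experiments.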

[2] = system: Trypanosoma 9 and 11 chromosomic sequence FTrypBT (FEBR1T) G-quadruplex; experiment: FRET melting assay, FtrypBT; format: binding, Trypanosoma brucei brucei; settings: compound 2 μM, oligonucleotide 0.2 μM, K+ conditions
Method in brief: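 Dual-labelled FAM/TAMRA oligonucleotides (0.2 µM) pre-folded in 10 mM lithium cacodylate pH 7.2, 10 mM KCl, 90 mM LiCl, with 2 µM compound. FAM emission (ex 492/em 516 nm) followed from 25 to 95 °C at 1 °C/min; Tm is the temperature at normalized emission 0.5, compared with and without compound.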

[3] = system: human duplex sequence FdxT; experiment: FRET melting assay, duplex control FdxT; format: binding; settings: compound 2 μM, oligonucleotide 0.2 μM, K+ conditions
[4] = target: G4-forming oligonucleotide Pf1 (d[(G3T3A)3G3]); experiment: Native electrospray mass spectrometry, Pf1; format: binding, Plasmodium; set-up: key to Kd Pf1, stoichiometry 1 (Kd1) / Kd Pf1, stoichiometry 2 (Kd2): n.b.: no binding detected; <LOQ: binding detected but below limit of quantitation; settings: 100 mM TMAA, 1 mM KCl
Experimental: (§1) Oligonucleotides were purchased in the lyophilized form from Eurogentec (RP-cartridge purification), and dissolved at 1 mM in pure water. TMAA (1 M) was purchased from Santa Cruz Biotechnology and potassium chloride (purity > 99.99%) from Sigma Aldrich (Sigma Aldrich, Saint-Quentin-Fallavier, France). The sample solutions contained 10 µM oligonucleotide and 10 (for CD only) or 20 µM ligand, in a 100 mM TMAA, 1mM KCl buffer. The solutions were incubated overnight at 4 °C before analysis.
(§2) The sample solutions were injected at a 10 µM strand concentration on an Agilent 6560 DTIMS-Q-TOF instrument (Agilent Technologies, Santa Clara, CA, USA), equipped with a dual-ESI source operated in the negative ion mode in soft conditions. The following parameters were used: fragmentor 320 V, trap fill time 1000 µs, trap release time 200 µs, trap entrance grid delta 2 V. The drift tube was filled with helium and the pressure was fixed at 3.89 ± 0.01 Torr (measured by a capacitance diaphragm gauge CDG-500, Agilent Technologies).
(§3) The MS data were extracted using the IM-MS Browser (v. B.08.00; Agilent Technologies). The peak area intensity of each species at the 5- charge state was extracted from their corresponding m/z range (encompassing potassium adducts), and baseline subtracted. The concentrations of all species (free DNA, free ligands, and complexes) and corresponding dissociation constants were determined as previously described.

[5] = target: human telomeric sequence 24TTG; experiment: Native electrospray mass spectrometry, 24TTG; format: binding; set-up: key to Kd 24TTG, stoichiometry 1 (Kd1): n.b.: no binding detected; <LOQ: binding detected but below limit of quantitation; settings: 100 mM TMAA, 1 mM KCl
Experimental: as §1, §2, §3

[6] = target: G-rich unfolded single-stranded sequence 24nonG4; experiment: Native electrospray mass spectrometry, 24nonG4; format: binding; set-up: key to Kd 24nonG4, stoichiometry 2 (Kd2) / Kd 24nonG4, stoichiometry 1 (Kd1): n.b.: no binding detected; <LOQ: binding detected but below limit of quantitation; settings: 100 mM TMAA, 1 mM KCl; for pKd: read-out: Kd 24nonG4, stoichiometry 1 (Kd1); for Kd 24nonG4, stoichiometry 2 (Kd2): 2:1 ligand:DNA complex
Experimental: as §1, §2, §3

[7] = 1:1 ligand:DNA complex, read-out: Kd Pf1, stoichiometry 1 (Kd1)
[8] = 2:1 ligand:DNA complex, read-out: Kd Pf1, stoichiometry 2 (Kd2)
[9] = 1:1 ligand:DNA complex, read-out: Kd 24TTG, stoichiometry 1 (Kd1)
[10] = 2:1 ligand:DNA complex, read-out: Kd 24TTG, stoichiometry 2 (Kd2)

Structure (SMILES)	pIC50 [1]	ΔTm FtrypBT [2] [°C]	ΔTm FdxT [3] [°C]	Kd Pf1, stoichiometry 1 (Kd1) ([4]; 1:1 ligand:DNA complex)	Kd 24TTG, stoichiometry 1 (Kd1) ([5]; 1:1 ligand:DNA complex)	Kd 24nonG4, stoichiometry 1 (Kd1) ([6]; 1:1 ligand:DNA complex)	pKd [4, 7]	pKd [4, 8]	pKd [5, 9]	pKd [5, 10]	pKd ([6]; 1:1 ligand:DNA complex)	Kd 24nonG4, stoichiometry 2 (Kd2) [6]	Kd Pf1, stoichiometry 2 (Kd2) ([4]; 2:1 ligand:DNA complex)
c1ccc(-c2cc(CNCCc3ccccn3)nc3c2ccc2c(-c4ccccc4)cc(CNCCc4ccccn4)nc23)cc1 [Compound 1m]	< 4.90	1.8	−0.2	n.b.	n.b.	n.b.	–	–	–	–	–	–	–
CN(C)CCCCCNCc1cc(-c2ccccc2)c2ccc3c(-c4ccccc4)cc(CNCCCCCN(C)C)nc3c2n1 [Compound 1d, 2,9-Bis[(5-dimethylaminopentyl)aminomethyl]-4,7-diphenyl-1,10-phenanthroline]	< 4.90	14.7	1.8	–	–	–	5.10	4.62	4.42	4.21	4.96	<LOQ	–
CN(C)CCCCNCc1cc(-c2ccccc2)c2ccc3c(-c4ccccc4)cc(CNCCCCN(C)C)nc3c2n1 [Compound 1c, 2,9-Bis[(4-dimethylaminobutyl)aminomethyl]-4,7-diphenyl-1,10-phenanthroline]	< 4.90	10.6	−0.5	–	–	–	4.64	–	4.36	4.55	5.05	<LOQ	n.b.
c1ccc(-c2cc(CNCCCN3CCCC3)nc3c2ccc2c(-c4ccccc4)cc(CNCCCN4CCCC4)nc23)cc1 [Compound 1l]	< 4.90	11.6	0.7	–	–	–	5.00	4.43	4.47	4.74	5.10	<LOQ	–
